Measured values reported in the supplement of paper PMC8741786.
≈ marks a conversion by molar mass, not a printed value.

Tested on: Neisseria subflava/flavescens/perflava
Test: minimum inhibitory concentration (ETEST)
Conditions: population: general population, antibiotic use in previous 6 months: No
Procedure: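 Oropharyngeal Neisseria isolates from MSM and employees in Belgium were identified to species by MALDI-TOF MS. MICs of azithromycin, ceftriaxone and ciprofloxacin were determined by ETEST on GC agar after 24 h at 36.5 °C and 5-7% CO2, in mg/L. Values beyond the strip range are reported as >256 (azithromycin) or <0.016 (ceftriaxone); isolates that did not grow are NA.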

SMILES: O=C(O)c1cn(C2CC2)c2cc(N3CCNCC3)c(F)cc2c1=O [ciprofloxacin]
- minimum inhibitory concentration (isolate id (sample isolate): Co000770_6): 0.047 µg/mL (≈ 0.142 µM)
- minimum inhibitory concentration (isolate id (sample isolate): Co000771_2): 1 µg/mL (≈ 3.02 µM)
- minimum inhibitory concentration (isolate id (sample isolate): Co000771_3): 0.006 µg/mL (≈ 0.0181 µM)
- minimum inhibitory concentration (isolate id (sample isolate): Co000771_5): 0.016 µg/mL (≈ 0.0483 µM)
- minimum inhibitory concentration (isolate id (sample isolate): Co000772_1): 0.023 µg/mL (≈ 0.0694 µM)
- minimum inhibitory concentration (isolate id (sample isolate): Co000772_2): 0.016 µg/mL (≈ 0.0483 µM)
- minimum inhibitory concentration (isolate id (sample isolate): Co000772_4): 0.016 µg/mL (≈ 0.0483 µM)
- minimum inhibitory concentration (isolate id (sample isolate): Co000772_5): 0.012 µg/mL (≈ 0.0362 µM)
- minimum inhibitory concentration (isolate id (sample isolate): Co000772_6): 0.008 µg/mL (≈ 0.0241 µM)
- minimum inhibitory concentration (isolate id (sample isolate): Co000773_1): 0.38 µg/mL (≈ 1.15 µM)
- minimum inhibitory concentration (isolate id (sample isolate): Co000773_2): 0.38 µg/mL (≈ 1.15 µM)
- minimum inhibitory concentration (isolate id (sample isolate): Co000774_2): 0.047 µg/mL (≈ 0.142 µM)
- minimum inhibitory concentration (isolate id (sample isolate): Co000775_1): 1 µg/mL (≈ 3.02 µM)
- minimum inhibitory concentration (isolate id (sample isolate): Co000775_2): 0.016 µg/mL (≈ 0.0483 µM)
- minimum inhibitory concentration (isolate id (sample isolate): Co000775_3): 0.25 µg/mL (≈ 0.754 µM)
- minimum inhibitory concentration (isolate id (sample isolate): Co000776_2): 0.047 µg/mL (≈ 0.142 µM)
- minimum inhibitory concentration (isolate id (sample isolate): Co000776_3): 0.047 µg/mL (≈ 0.142 µM)
- minimum inhibitory concentration (isolate id (sample isolate): Co000777_1): 1 µg/mL (≈ 3.02 µM)
- minimum inhibitory concentration (isolate id (sample isolate): Co000777_2): 0.5 µg/mL (≈ 1.51 µM)
- minimum inhibitory concentration (isolate id (sample isolate): Co000777_4): 2 µg/mL (≈ 6.04 µM)
- minimum inhibitory concentration (isolate id (sample isolate): Co000778_1): 0.012 µg/mL (≈ 0.0362 µM)
- minimum inhibitory concentration (isolate id (sample isolate): Co000778_2): > 32 µg/mL
- minimum inhibitory concentration (isolate id (sample isolate): Co000778_3): 0.012 µg/mL (≈ 0.0362 µM)
- minimum inhibitory concentration (isolate id (sample isolate): Co000780_4): 0.75 µg/mL (≈ 2.26 µM)
- minimum inhibitory concentration (isolate id (sample isolate): Co000781_1): 0.5 µg/mL (≈ 1.51 µM)
- minimum inhibitory concentration (isolate id (sample isolate): Co000781_3): 2 µg/mL (≈ 6.04 µM)
- minimum inhibitory concentration (isolate id (sample isolate): Co000781_4): 0.75 µg/mL (≈ 2.26 µM)
- minimum inhibitory concentration (isolate id (sample isolate): Co000782_2): 0.016 µg/mL (≈ 0.0483 µM)
- minimum inhibitory concentration (isolate id (sample isolate): Co000782_3): 0.012 µg/mL (≈ 0.0362 µM)
- minimum inhibitory concentration (isolate id (sample isolate): Co000782_4): 0.023 µg/mL (≈ 0.0694 µM)
- minimum inhibitory concentration (isolate id (sample isolate): Co000783_1): 0.064 µg/mL (≈ 0.193 µM)
- minimum inhibitory concentration (isolate id (sample isolate): Co000783_2): 0.094 µg/mL (≈ 0.284 µM)
- minimum inhibitory concentration (isolate id (sample isolate): Co000783_5): 0.012 µg/mL (≈ 0.0362 µM)
- minimum inhibitory concentration (isolate id (sample isolate): Co000784_1): 0.023 µg/mL (≈ 0.0694 µM)
- minimum inhibitory concentration (isolate id (sample isolate): Co000784_2): 0.75 µg/mL (≈ 2.26 µM)
- minimum inhibitory concentration (isolate id (sample isolate): Co000784_5): 0.023 µg/mL (≈ 0.0694 µM)
- minimum inhibitory concentration (isolate id (sample isolate): Co000785_1): 0.016 µg/mL (≈ 0.0483 µM)
- minimum inhibitory concentration (isolate id (sample isolate): Co000785_2): 0.25 µg/mL (≈ 0.754 µM)
- minimum inhibitory concentration (isolate id (sample isolate): Co000785_3): 0.125 µg/mL (≈ 0.377 µM)
- minimum inhibitory concentration (isolate id (sample isolate): Co000785_4): 0.012 µg/mL (≈ 0.0362 µM)
- minimum inhibitory concentration (isolate id (sample isolate): Co000786_1): 0.047 µg/mL (≈ 0.142 µM)
- minimum inhibitory concentration (isolate id (sample isolate): Co000786_2): 0.016 µg/mL (≈ 0.0483 µM)
- minimum inhibitory concentration (isolate id (sample isolate): Co000787_1): > 32 µg/mL
- minimum inhibitory concentration (isolate id (sample isolate): Co000787_2): 0.023 µg/mL (≈ 0.0694 µM)
- minimum inhibitory concentration (isolate id (sample isolate): Co000787_4): 0.023 µg/mL (≈ 0.0694 µM)
- minimum inhibitory concentration (isolate id (sample isolate): Co000788_2): 0.25 µg/mL (≈ 0.754 µM)
- minimum inhibitory concentration (isolate id (sample isolate): Co000788_3): 0.016 µg/mL (≈ 0.0483 µM)
- minimum inhibitory concentration (isolate id (sample isolate): Co000788_5): 0.19 µg/mL (≈ 0.573 µM)
- minimum inhibitory concentration (isolate id (sample isolate): Co000789_1): 0.016 µg/mL (≈ 0.0483 µM)
- minimum inhibitory concentration (isolate id (sample isolate): Co000790_2): 0.006 µg/mL (≈ 0.0181 µM)
- minimum inhibitory concentration (isolate id (sample isolate): Co000790_4): 0.006 µg/mL (≈ 0.0181 µM)
